# Measurements published in PMC3911951, “Crystal Structure of Arginine Methyltransferase 6 from Trypanosoma brucei” (PLoS ONE, 2014).
# Tests used:
# TbPRMT6 [1] = molecular target: T1, TbPRMT6 (Trypanosoma brucei, UniProt Q57U70); test: X-ray crystal structure, […] A; details: co-crystallised with three-fold molar excess SAH; 100 mM citrate pH 5.5, 20% PEG3000, 293 K; SAM-binding pocket
# T1 construct: gene Tb05.6E7.1000; full-length, E. coli BL21(DE3), modified pET28a, N-terminal 6xHis cut by TEV protease; 41 kDa monomer, homodimer; residues 1-24 and 228-229 disordered in crystal
# T1 sequence (Q57U70 1-368): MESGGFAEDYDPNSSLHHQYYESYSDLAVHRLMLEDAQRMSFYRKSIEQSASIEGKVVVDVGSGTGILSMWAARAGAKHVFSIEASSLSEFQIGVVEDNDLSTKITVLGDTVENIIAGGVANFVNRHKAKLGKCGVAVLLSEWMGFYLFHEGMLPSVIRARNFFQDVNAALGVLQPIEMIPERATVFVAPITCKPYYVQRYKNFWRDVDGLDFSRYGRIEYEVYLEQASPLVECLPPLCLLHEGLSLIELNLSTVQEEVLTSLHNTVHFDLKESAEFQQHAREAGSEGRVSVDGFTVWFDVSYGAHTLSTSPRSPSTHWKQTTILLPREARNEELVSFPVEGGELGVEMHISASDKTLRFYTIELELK
# TbPRMT6 [2] = molecular target: T1, TbPRMT6; test: in vitro methylation of Trx-H4tail, western blot for asymmetric dimethyl H4R3; format: biochemical; details: 40 uM SAM, 1 ug Trx-H4tail (bovine histone H4 residues) as co-substrate; 30 mM Tris pH 8.0, 100 mM NaCl, 1 mM EDTA, 5 mM DTT, 37 C, 12 h
Structure (SMILES),"X-ray crystal structure, 2.35 A (TbPRMT6 [1])","in vitro methylation of Trx-H4tail, western blot for asymmetric dimethyl H4R3 (TbPRMT6 [2])"
"Nc1ncnc2c1ncn2[C@@H]1O[C@H](CSCC[C@H](N)C(=O)O)[C@@H](O)[C@H]1O [SAH, S-adenosyl-homocysteine]",Structures of apo-TbPRMT6 and in complex with SAH (SAH-TbPRMT6) were resolved and refined,–
"C[S+](CC[C@H](N)C(=O)O)C[C@H]1O[C@@H](n2cnc3c(N)ncnc32)[C@H](O)[C@@H]1O (stereo partly drawn) [SAM, S-adenosyl-L-methionine]",–,our result also showed that TbPRMT6 can methylate bovine histone H4R3
